Source: patent US20260373103A1, “COMPOSITIONS AND METHODS FOR PREVENTING CARDIOMYOPATHY” (OHIO STATE INNOVATION FOUNDATION, priority 2022, published 2026)

Tested on: HeLa-Parkin or HeLa-Parkin/USP30 cells
Experiment: Mitochondrial membrane potential (TMRM signal)
Format: cell-based
Details: FCCP 10 μM
Protocol: ΔΨm was measured using a fluorescence microplate reader (BioTek Instruments) in cells preincubated with Tetramethylrhodamine methyl ester (TMRM, Thermo Scientific) following manufacturer's instructions. Cells were washed in PBS before resuspension in Hank's balanced salt solution (HBSS; 156 mM NaCl, 3 mM KCl, 2 mM MgSO4, 1.25 mM KH2PO4, 2 mM CaCl2), 10 mM glucose and 10 mM HEPES; pH adjusted to 7.35 with NaOH) (1.0×10^6 cells/ml) containing 50 nM TMRM. For each individual experiment, average TMRM fluorescence was normalized to control cells.
We initially analyzed mitochondrial function using Tetramethylrhodamine (TMRM), a dye requiring mitochondrial membrane potential to accumulate within the mitochondria.

N#CC(C#N)=NNc1ccc(OC(F)(F)F)cc1 [FCCP, Carbonyl cyanide-p-trifluoromethoxyphenylhydrazone, reference compound]
TMRM staining (mitochondrial membrane potential): significant loss of staining
